Data as given in patent US8664258B2, “Primary amines and derivatives thereof as modulators of the 5-HT2A serotonin receptor useful for the treatment of disorders related thereto” (Arena Pharmaceuticals, Inc., priority 2006, dated 2014).
Structures can show the parent of a compound that is named as a salt.

Assays:
human 5-HT2A receptor = human 5-HT2A receptor (Homo sapiens (Human), UniProt P28223); test: [125I]DOI radioligand binding assay; details: 0.5 nM [125I]DOI, membranes of COS7 cells transfected with human 5-HT2A receptor
Sequence of human 5-HT2A receptor (P28223 whole entry): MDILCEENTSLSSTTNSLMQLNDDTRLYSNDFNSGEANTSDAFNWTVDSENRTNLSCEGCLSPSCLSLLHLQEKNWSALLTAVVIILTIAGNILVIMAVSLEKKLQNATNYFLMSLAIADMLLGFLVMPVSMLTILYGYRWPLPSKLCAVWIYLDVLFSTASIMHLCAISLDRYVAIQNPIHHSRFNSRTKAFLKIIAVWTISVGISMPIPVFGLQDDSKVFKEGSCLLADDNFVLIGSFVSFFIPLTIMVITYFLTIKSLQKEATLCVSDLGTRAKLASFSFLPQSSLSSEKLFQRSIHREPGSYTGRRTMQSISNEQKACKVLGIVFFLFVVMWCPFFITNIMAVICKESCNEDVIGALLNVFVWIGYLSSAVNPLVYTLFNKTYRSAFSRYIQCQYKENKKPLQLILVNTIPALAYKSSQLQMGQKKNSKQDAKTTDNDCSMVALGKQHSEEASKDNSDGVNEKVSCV
Procedure: For the IP accumulation assay (Example 10), HEK293 cells were transfected while for the DOI binding assay (Example 11) COS7 cells were transfected. Several protocols well known in the art can be used to transfect cells. The following protocol is representative of the transfection procedures used herein for COS7 or 293 cells.
On day one, COS-7 cells were plated onto 24 well plates, usually 1×10^5 cells/well or 2×10^5 cells/well, respectively. On day two, the cells were transfected by first mixing 0.25 μg cDNA in 50 μL serum-free DMEM/well and then 2 μl lipofectamine in 50 μL serum-free DMEM/well. The solutions (“transfection media”) were gently mixed and incubated for 15-30 minutes at room temperature. The cells were washed with 0.5 mL PBS and then 400 μL of serum free media was mixed with the transfection media and added to the cells. The cells were then incubated for 3-4 hours at 37° C./5% CO2. Then the transfection media was removed and replaced with 1 mL/well of regular growth media.
Compounds of the invention were tested for their ability to bind to a 5-HT2A receptor clone membrane preparation using a radioligand binding assay. Briefly, COS cells were transiently transfected with a pCMV expression vector containing a human 5-HT2A receptor (for the sequence of the receptor see U.S. Pat. No. 6,541,209, SEQ ID NO:24) as described in Example 9.
COS7 cells transfected with recombinant human 5-HT2A receptors were cultured for 48 hr post transfection, collected, washed with ice-cold phosphate buffered saline, pH7.4 (PBS), and then centrifuged at 48,000×g for 20 min at 4° C. The cell pellet was then resuspended in wash buffer containing 20 mM HEPES pH 7.4 and 0.1 mM EDTA, homogenized on ice using a Brinkman polytron, and recentrifuged at 48,000×g for 20 min. at 4° C. The resultant pellet was then resuspended in 20 mM HEPES, pH 7.4, homogenized on ice, and centrifuged (48,000×g for 20 min at 4° C.). Crude membrane pellets were stored at −80° C. until used for radioligand binding assays.
Radioligand binding assays for human 5-HT2A receptor was conducted using the 5-HT2 agonist [^125]DOI as radioligand. To define nonspecific binding, 10 μM DOI was used for all assays. For competitive binding studies, 0.5 nM [^125]DOI was used and compounds were assayed over a range of 0.01 nM to 10 μM. Assays were conducted in a total volume of 200 μl in 96-well Perkin Elmer GF/C filter plates in assay buffer (50 mM Tris-HCl, pH 7.4, 0.5 mM EDTA, 5 mM MgCl2, and 10 μM pargyline). Assay incubations were performed for 60 min at room temperature and were terminated by rapid filtration under vacuum pressure of the reaction mixture over Whatman GF/C glass fiber filters presoaked in 0.5% PEI using a Brandell cell harvestor. Filters were then washing several times with ice-cold wash buffer (50 mM Tris-HCl, pH 7.4). Plates were then dried at room temperature and counted in a Wallac microBeta scintillation counter.

JC virus = details: cited from earlier work

IC50 (human 5-HT2A receptor) | SMILES | JC virus infection of human glial cells (JC virus)
91 nM | Cn1nccc1-c1cc(NC(=O)c2ccno2)ccc1OCCN [Compound 106, Isoxazole-5-carboxylic acid [4-(2-amino-ethoxy)-3-(2-methyl-2H-pyrazol-3-yl)-phenyl]-amide] | 
 | Cc1nc2sccn2c(=O)c1CCN1CCC(=C(c2ccc(F)cc2)c2ccc(F)cc2)CC1 [ritanserin] | inhibited
0.025 nM | Cn1nccc1-c1cc(NC(=O)C(=O)c2ccc(F)cc2)ccc1OCCN [Compound 32, N-[4-(2-Amino-ethoxy)-3-(2-methyl-2H-pyrazol-3-yl)-phenyl]-2-(4-fluoro-phenyl)-2-oxo-acetamide] | 
 | O=C(c1ccc(F)cc1)C1CCN(CCn2c(=O)[nH]c3ccccc3c2=O)CC1 [ketanserin] | inhibited
1.2 nM | Cn1ncc(Cl)c1-c1cc(NC(=O)c2cc(Br)cs2)ccc1OCCN [Compound 77, 4-bromo-thiophene-2-carboxylic acid [4-(2-amino-ethoxy)-3-(4-chloro-2-methyl-2H-pyrazol-3-yl)-phenyl]-amide trifluoroacetate] | 
0.26 nM | Cn1ncc(Cl)c1-c1cc(NC(=O)C2CCC(C(F)(F)F)CC2)ccc1OCCN (stereo not shown) [Compound 303, 4-trifluoromethyl-cyclohexanecarboxylic acid [4-(2-amino-ethoxy)-3-(4-chloro-2-methyl-2H-pyrazol-3-yl)-phenyl]-amide trifluoroacetate] | 

SMILES | IC50 (human 5-HT2A receptor) | JC virus infection of human glial cells (JC virus)
Cn1ncc(Cl)c1-c1cc(NC(=O)c2ccc(F)c(C(F)(F)F)c2)ccc1OCCN [Compound 197, N-[4-(2-amino-ethoxy)-3-(4-chloro-2-methyl-2H-pyrazol-3-yl)-phenyl]-4-fluoro-3-trifluoromethyl-benzamide trifluoroacetate] | 1 nM | 
